According to patent US20240208909A1, “SUBSTITUTED QUINOLINE DERIVATIVES HAVING SOS1 INHIBITION ACTIVITIES AND USES THEREOF” (Accutar Biotechnology Inc., priority 2022, published 2024):

What was measured:
[1] = biological target: SOS1/KRAS-G12D (Homo sapiens (Human), UniProt Q07889); experiment: SOS1/KRAS-G12D binding inhibition assay (AlphaScreen); conditions: GST-SOS1 and 6*His KRAS-G12D, read-out: KrasG12D/SOS1 binding IC50
Experimental: Example 22: SOS1/KRAS-G12D Binding Inhibition Assay
SOS1 binding affinity of candidate compounds was measured by monitoring the interaction of SOS1 with KRAS-G12D in the presence of the test compound. Briefly, 5 nM GST tagged SOS1 proteins (final concentration) were pre-incubated with 50 nM 6*His tagged KRAS-G12D proteins (final concentration) in an assay buffer containing 10 mM HEPES, pH 7.4, 150 mM NaCl, 1 mM DTT, 5 mM MgCl2, 0.1% Tween-20, and 0.05% BSA for 30 minutes. The test compounds in 2% DMSO (final concentration) at various concentrations were then added to the reaction mixture and incubated for another 30 minutes at 4° C. 5 ug/ml GSH AlphaScreen donor beads (PerkinElmer, 6765300) and 5 ug/ml nickel chelate (Ni-NTA) AlphaScreen acceptor beads (PerkinElmer, 6760619C) (final concentrations) were then added to the mixture. After an incubation of 2 hours at 4° C., the fluorescent signals were obtained on the EnVision® 2105 Multilabel Plate Reader (PerkinElmer).
Raw AlphaScreen data were converted to a percentage of inhibition (relative to DMSO) using the following equations: • a) For a given test compound concentration X:
Signal (X)=Signal (SOS1 & KRAS-G12D & compound)-Signal (buffer & KRAS-G12D & compound)
Percentage of inhibition at concentration X=[1−Signal (X)/Signal (DMSO)]*100% b)
The IC50 values were determined by nonlinear regression of plots of [inhibitor] vs. percentage of inhibition with variable slope, analyzed using GraphPad Prism 9.

[2] = system: Phospho-ERK1/2 in DLD1 cells; experiment: Phospho-ERK1/2 expression inhibition in DLD1 cells; type: cell-based; conditions: Homo sapiens, DLD-1, 4 hours, read-out: DLD1 pERK IC50
Experimental: Example 23: Phospho-ERK1/2 Expression Inhibition in DLD1 Cells
DLD1 cells were obtained from American Type Culture Collection (ATCC). DLD1 cells were plated in 96-well plates (VWR #10062-900, or Corning #3904) in 90 uL culture medium at a density of 15,000 cells/well in the RPM11640 growth medium containing 10% FBS and 1% Penicillin Streptomycin, and then incubated at 37° C. overnight. The following day, the test compound was administered to the cells by using 1000×x compound stock solution prepared in DMSO at various concentrations. 1000× compound stock solution was first diluted in culturing medium to 10×, then 10 uL compound medium was added to each well in the cell plates. After administration of the compound, the cells were then incubated at 37° C. for 4 hours. Upon completion, the cells were washed with PBS briefly. 150 uL/well of 4% formaldehyde was added and the plates were incubated at room temperature for 20 mins. The cells were washed with PBS briefly, and permeabilized with 150 uL/well of ice cold 100% methanol for 10 mins. The cells were washed with PBS briefly and blocked with 100 uL/well LI-COR blocking buffer for 1 hr at room temperature with gentle shaking. The cells were incubated overnight at 4° C. with 50 uL primary antibody rabbit anti-Phospho-ERK1/2 (1: 500, Cell Signaling, #4370) diluted in Intercept Blocking Buffer (LI-COR, #927-60001) containing 0.1% Tween 20. The next day, the cells were washed with 200 uL PBS containing 0.1% Tween 20, 5×5 mins at room temperature with gentle shaking, and incubated with 50 uL secondary antibody, IRDye® 800CW Goat anti-Rabbit IgG (LI-COR, #926-32211), 1:1000, in LI-COR blocking buffer with 0.2% Tween 20 for 1 hr at room temperature with gentle shaking. The cells were washed with 200 uL PBS containing 0.1% Tween 20, 5×5 mins at room temperature with gentle shaking. The cells were washed with PBS for 5 mins. 100 uL fresh PBS was added to each well and the plates were imaged on a LI-COR Odyssey CLX plate reader.

[3] = system: K562 cells; experiment: Cell growth inhibition of K562 cells (CellTiter-Glo); type: cell-based; conditions: Homo sapiens, 120 h, 5 days
Experimental: Example 24: Cell Growth Inhibition of K562 Cells
K562 cells were obtained from American Type Culture Collection (ATCC). For cell growth assay, K562 cells were seeded in 96-well plates at 1000 cells/well in 90 μl of RPM11640 growth medium containing 10% FBS and 1% Penicillin Streptomycin, and then incubated at 37° C. for 1 hour. The test compound was administered to the cells by using 1000× compound stock solution prepared in DMSO at various concentrations. 1000× compound stock solution was first diluted in culturing medium to 10×, then 10 uL compound medium was added to each well in the cell plates. After administration of the compound, the cells were then incubated at 37° C. for 5 days. Upon completion, the plates were equilibrated at room temperature for approximately 10 minutes. 100 ul of CellTiter-Glo® Reagent (Promega) was added to each well. The plates were then incubated at room temperature for 10 minutes and luminescence was recorded by EnSpire plate reader (PerkinElmer).

SOS1/KRAS-G12D, sequence (Q07889 564-1049 limits assumed): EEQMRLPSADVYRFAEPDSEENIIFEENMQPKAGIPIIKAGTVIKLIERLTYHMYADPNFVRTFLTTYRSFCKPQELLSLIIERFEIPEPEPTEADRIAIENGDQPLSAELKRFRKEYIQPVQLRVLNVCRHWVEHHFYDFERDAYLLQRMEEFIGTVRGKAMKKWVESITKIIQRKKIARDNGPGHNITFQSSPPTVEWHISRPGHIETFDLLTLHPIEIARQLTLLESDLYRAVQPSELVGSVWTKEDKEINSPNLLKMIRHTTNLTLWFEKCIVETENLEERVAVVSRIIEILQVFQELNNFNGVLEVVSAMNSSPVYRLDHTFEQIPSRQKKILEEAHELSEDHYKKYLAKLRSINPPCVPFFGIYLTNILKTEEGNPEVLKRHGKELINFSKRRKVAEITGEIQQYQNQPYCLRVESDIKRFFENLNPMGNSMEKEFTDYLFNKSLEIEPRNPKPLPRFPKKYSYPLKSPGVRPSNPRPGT

Row | Structure (SMILES) | IC50 [1] | IC50 [2] | GI50 [3]
1 | C[C@@H](Nc1ccnc2ccc(N3CCN(C(=O)[C@H]4CCOC4)CC3)cc12)c1cccc(C(F)F)c1F [Compound 14, (4-(4-(((R)-1-(3-(difluoromethyl)-2-fluorophenyl)ethyl)amino)quinolin-6-yl)piperazin-1-yl)((S)-tetrahydrofuran-3-yl)methanone] | ≤ 10 nM | 150 to 500 nM | ≤ 100 nM
2 | C[C@@H](Nc1ccnc2ccc(N3CCN(C(=O)[C@@H]4CCOC4)CC3)cc12)c1cccc(C(F)F)c1F [Compound 15, (4-(4-(((R)-1-(3-(difluoromethyl)-2-fluorophenyl)ethyl)amino)quinolin-6-yl)piperazin-1-yl)((R)-tetrahydrofuran-3-yl)methanone] | ≤ 10 nM | ≤ 150 nM | 100 to 500 nM
3 | C[C@@H](Nc1ccnc2ccc(N3CCN(C(=O)C4COC4)CC3)cc12)c1cccc(C(F)F)c1F [Compound 16, (R)-(4-(4-((1-(3-(difluoromethyl)-2-fluorophenyl)ethyl)amino)quinolin-6-yl)piperazin-1-yl)(oxetan-3-yl)methanone] | ≤ 10 nM | ≤ 150 nM | ≤ 100 nM
4 | CC(C)C(=O)N1CCN(c2ccc3nccc(N[C@H](C)c4cccc(C(F)F)c4F)c3c2)CC1 [Compound 17, (R)-1-(4-(4-((1-(3-(difluoromethyl)-2-fluorophenyl)ethyl)amino)quinolin-6-yl)piperazin-1-yl)-2-methylpropan-1-one] | ≤ 10 nM | ≤ 150 nM | 100 to 500 nM
5 | C[C@@H](Nc1ccnc2ccc(N3CC[C@H](N)C3)cc12)c1cccc(C(F)F)c1F [Compound 18, 6-((S)-3-aminopyrrolidin-1-yl)-N-((R)-1-(3-(difluoromethyl)-2-fluorophenyl)ethyl)quinolin-4-amine] | 10 to 100 nM | > 500 nM | > 500 nM
6 | Cc1c([C@@H](C)Nc2ccnc3ccc(N4CC5CC(C4)O5)cc23)cccc1C(F)(F)F [Compound 19, 6-(6-oxa-3-azabicyclo[3.1.1]heptan-3-yl)-N-((R)-1-(2-methyl-3-(trifluoromethyl)phenyl)ethyl)quinolin-4-amine] | > 100 nM | > 500 nM | 100 to 500 nM
7 | Cc1c([C@@H](C)Nc2ccnc3ccc(N4CC[C@@H](N)C4)cc23)cccc1C(F)(F)F [Compound 20, 6-((R)-3-aminopyrrolidin-1-yl)-N-((R)-1-(2-methyl-3-(trifluoromethyl)phenyl)ethyl)quinolin-4-amine] | > 100 nM | > 500 nM | > 500 nM
8 | Cc1c([C@@H](C)Nc2ccnc3ccc(N4CC5(CCN(C)C5=O)C4)cc23)cccc1C(F)(F)F [Compound 21, (R)-6-methyl-2-(4-((1-(2-methyl-3-(trifluoromethyl)phenyl)ethyl)amino)quinolin-6-yl)-2,6-diazaspiro[3.4]octan-5-one] | > 100 nM | > 500 nM | > 500 nM
9 | Cc1c([C@@H](C)Nc2ccnc3ccc(N4C[C@@H]5C[C@H]4CO5)cc23)cccc1C(F)(F)F [Compound 22, 6-((1S,4S)-2-oxa-5-azabicyclo[2.2.1]heptan-5-yl)-N-((R)-1-(2-methyl-3-(trifluoromethyl)phenyl)ethyl)quinolin-4-amine] | > 100 nM | > 500 nM | > 500 nM
10 | Cc1c([C@@H](C)Nc2ccnc3ccc(N4CCC5(CCN(C)C5=O)CC4)cc23)cccc1C(F)(F)F [Compound 23, (R)-2-methyl-8-(4-((1-(2-methyl-3-(trifluoromethyl)phenyl)ethyl)amino)quinolin-6-yl)-2,8-diazaspiro[4.5]decan-1-one] | 10 to 100 nM | > 500 nM | 100 to 500 nM
11 | Cc1c([C@@H](C)Nc2ccnc3ccc(N4CCN(c5cnn(C)c5)CC4)cc23)cccc1C(F)(F)F [Compound 24, (R)-6-(4-(1-methyl-1H-pyrazol-4-yl)piperazin-1-yl)-N-(1-(2-methyl-3-(trifluoromethyl)phenyl)ethyl)quinolin-4-amine] | > 100 nM | > 500 nM | 100 to 500 nM
12 | Cc1c([C@@H](C)Nc2ccnc3ccc(N4CCn5ncnc5C4)cc23)cccc1C(F)(F)F [Compound 25, (R)-6-(5,6-dihydro-[1,2,4]triazolo[1,5-a]pyrazin-7(8H)-yl)-N-(1-(2-methyl-3-(trifluoromethyl)phenyl)ethyl)quinolin-4-amine] | > 100 nM | 150 to 500 nM | 100 to 500 nM
13 | Cc1c([C@@H](C)Nc2ccnc3ccc(N4CCN(C(=O)C5CC5)CC4)cc23)cccc1C(F)(F)F [Compound 26, (R)-cyclopropyl(4-(4-((1-(2-methyl-3-(trifluoromethyl)phenyl)ethyl)amino)quinolin-6-yl)piperazin-1-yl)methanone] | 10 to 100 nM | > 500 nM | 100 to 500 nM
14 | CC(=O)N1CCN(c2ccc3nccc(N[C@H](C)c4cccc(C(F)(F)F)c4C)c3c2)CC1 [Compound 27, (R)-1-(4-(4-((1-(2-methyl-3-(trifluoromethyl)phenyl)ethyl)amino)quinolin-6-yl)piperazin-1-yl)ethan-1-one] | 10 to 100 nM | > 500 nM | > 500 nM
15 | CNC1CCN(c2ccc3nccc(N[C@H](C)c4cccc(C(F)(F)F)c4C)c3c2)CC1 [Compound 28, (R)-N-(1-(2-methyl-3-(trifluoromethyl)phenyl)ethyl)-6-(4-(methylamino)piperidin-1-yl)quinolin-4-amine] | 10 to 100 nM | > 500 nM | > 500 nM
16 | Cc1c([C@@H](C)Nc2ccnc3ccc(N4CCN(C(=O)C5COC5)CC4)cc23)cccc1C(F)(F)F [Compound 29, (R)-(4-(4-((1-(2-methyl-3-(trifluoromethyl)phenyl)ethyl)amino)quinolin-6-yl)piperazin-1-yl)(oxetan-3-yl)methanone] | 10 to 100 nM | > 500 nM | 100 to 500 nM
17 | C[C@@H](Nc1ccnc2c(F)cc(N3CC[C@@H](N)C3)cc12)c1cccc(C(F)F)c1F [Compound 30, 6-((R)-3-aminopyrrolidin-1-yl)-N-((R)-1-(3-(difluoromethyl)-2-fluorophenyl)ethyl)-8-fluoroquinolin-4-amine] | 10 to 100 nM | > 500 nM | 100 to 500 nM
18 | C[C@@H](Nc1ccnc2ccc(N3CC[C@@H](N(C)C)C3)cc12)c1cccc(C(F)F)c1F [Compound 31, N-((R)-1-(3-(difluoromethyl)-2-fluorophenyl)ethyl)-6-((R)-3-(dimethylamino)pyrrolidin-1-yl)quinolin-4-amine] | ≤ 10 nM | > 500 nM | ≤ 100 nM
19 | Cc1c([C@@H](C)Nc2ccnc3ccc(N4CCC(N(C)C)CC4)cc23)cccc1C(F)(F)F [Compound 32, (R)-6-(4-(dimethylamino)piperidin-1-yl)-N-(1-(2-methyl-3-(trifluoromethyl)phenyl)ethyl)quinolin-4-amine] | 10 to 100 nM | > 500 nM | 100 to 500 nM
